Results on ten compounds are retold here after patent US5091299A, “An enzyme electrode for use in organic solvents” (priority 1987, dated 1992).

“And” between values parts separate entries of the source, which are not always exact repeats. Equal values may be shown once.

Assay [1] deals with Polyphenol oxidase (tyrosinase). Description: Electrode specificity, response of the enzyme electrode to ten phenols. It is filed as biochemical. The following applies: phenol 100 μM, single electrode, chloroform.
Assay [2] shares this test system. Kind of assay: Storage stability of the enzyme electrode, response to p-cresol. The following applies: p-cresol 200 μM.
For assay [3] the test system is unchanged. Description: Calibration of the polyphenol oxidase enzyme electrode with p-cresol in chloroform. Conditions: after addition of p-cresol, -275 mV vs SCE.
Assay [4] has the same test system. Kind of assay: Operational stability of the enzyme electrode, sixteen consecutive p-cresol assays. The following applies: p-cresol 100 μM.
Where [5] appears, read: room temp. (20° C.), stored dry.
Setting [6] is: room temp. (20° C.), stored in CHCl3.

`Cc1cccc(O)c1` [m-cresol]: in assay [1], the Electrode response was found to be 4.7 μA.
In turn, `Cc1ccc(O)c(O)c1` [4-methylcatechol] yielded an Electrode response in assay [1] of 6.7 μA.
Compound `Oc1ccc(Cl)cc1` [4-chlorophenol] returned an Electrode response in assay [1] of 3.1 μA.
`Oc1ccccc1O` [catechol] yielded an Electrode response in assay [1] of 8.6 μA.
As for `O=Cc1ccc(O)cc1` [p-hydroxy-benzaldehyde], in assay [1], the Electrode response is on record as 0.0 μA and the “whether the electrode responded” value is recorded as “responded to all the phenols tested except”.
In turn, `Cc1ccc(O)cc1` [p-cresol] came in with an Electrode response in assay [1] of 5.6 μA. The Initial response in assay [2] (5° C., stored dry) was 4.3 μA and 3.7 μA; in assay [2] (5° C., stored in CHCl3) it was 4.8 μA and 3.8 μA; in assay [2] (setting [5]) it was 5.2 μA and 4.8 μA; in assay [2] (setting [6]), 4.0 μA and 4.2 μA. The “Response after 3 days” value in assay [2] (5° C., stored dry) is 4.4 μA and 4.5 μA; in assay [2] (5° C., stored in CHCl3), 8.1 μA and 9.5 μA; in assay [2] (setting [5]), 6.8 μA and 5.4 μA; in assay [2] (setting [6]), 7.0 μA and 7.2 μA. Moreover, the “Response after 48 days” value in assay [2] (5° C., stored dry) is 4.7 μA and 3.5 μA; in assay [2] (5° C., stored in CHCl3), 10.0 μA and 7.6 μA; in assay [2] (setting [5]), 3.6 μA and 2.8 μA; in assay [2] (setting [6]) it was 5.5 μA and 6.5 μA. The decrease in response result in assay [2] (electrodes stored at 5° C.) is “no significant decrease”. Besides, the “average loss of activity (of the response)” value in assay [2] (electrodes stored at room temperature, after three days) stood at 30%. Further, the “time for the current increase to reach a steady value” in assay [3] was 3 to 5 min. Besides, the “Electrode response after the first three assays” value in assay [4] is given as 4.0 μA. In addition, the “Electrode response, first assay” value in assay [4] (start of series of sixteen assays) is on record as 1.9 μA. Also, the “Electrode response over the next eleven assays” value in assay [4] (started to fall after assay fourteen) is given as “remained stable”.
With `Oc1ccccc1` [phenol], in assay [1], the Electrode response stood at 6.4 μA.
`O=Cc1cccc(O)c1` [m-hydroxy-benzaldehyde]: in assay [1], the Electrode response is given as 0.0 μA and the “whether the electrode responded” value is “responded to all the phenols tested except”.
As to `Nc1ccc(O)cc1` [p-aminophenol], the Electrode response in assay [1] came to 2.4 μA.
As to `Cc1ccccc1O` [o-cresol], in assay [1], the Electrode response is on record as 0.0 μA and the “whether the electrode responded” value is “responded to all the phenols tested except”.
